The text below walks through data of patent US5221667A, “Renin inhibiting peptides having an α-heteroatom amino acid at the P3 position” (Warner-Lambert Company, priority 1990, dated 1993).

For this assay, the target named is T1, renin (Homo sapiens, UniProt P00797).
T1 sequence (P00797 67-406): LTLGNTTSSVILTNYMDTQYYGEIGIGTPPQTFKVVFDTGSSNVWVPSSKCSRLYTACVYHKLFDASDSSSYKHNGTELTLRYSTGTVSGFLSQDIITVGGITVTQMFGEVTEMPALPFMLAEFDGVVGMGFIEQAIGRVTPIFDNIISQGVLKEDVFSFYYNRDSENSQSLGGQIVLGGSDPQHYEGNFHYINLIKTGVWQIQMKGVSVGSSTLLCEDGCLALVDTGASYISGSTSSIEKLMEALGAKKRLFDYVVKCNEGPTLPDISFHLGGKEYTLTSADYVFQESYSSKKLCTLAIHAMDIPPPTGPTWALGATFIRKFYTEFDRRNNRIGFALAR
The assay is described as follows: in vitro renin inhibitory activity, radioimmunoassay for angiotensin I. Format: biochemical. The note with it: for inhibition at 0.01 µM: at 10^-8 molar concentration of test compound, read-out: In Vitro Activity, percent inhibition at 10^-8; for IC50: renin incubated two hours at 37° with angiotensinogen, values marked * are IC50, read-out: In Vitro Activity, IC50 (molar concentration causing 50% inhibition of renin activity). On the procedure: The effectiveness of the aforementioned compounds is determined by a test for in vitro renin inhibitory activity. This activity is determined by a standard radioimmunoassay for angiotensin I. In this assay the enzyme, renin, incubated for two hours at 37° in the presence of a substrate, angiotensinogen, generates the product, angiotensin I. Test compounds are added to the incubation mixture. Relative activity is reported as the percent inhibition at the specified molar concentration or as the IC50, which is the molar concentration of test compound causing a 50% inhibition of the renin activity.

For `CC(C)CC(=O)NC(SC(C)C)C(=O)N[C@@H](Cc1c[nH]cn1)C(=O)N[C@@H](CC1CCCCC1)[C@@H](O)[C@@H](O)CC(C)C` (single isomer, unassigned) [IVA-NHCH(SCH(CH3)2)CO--HIS--CAD (Isomer A), IVA-NHCH(SCH(CH3)2)CO-HIS-CAD (Isomer A)], the inhibition at 0.01 µM came out at 10.5%. Take `CC[C@H](C)CNC(=O)C[C@H](O)[C@H](CC(C)C)NC(=O)[C@H](CC(C)C)NC(=O)C(NC(=O)CC(C)C)Sc1ccccc1` (single isomer, unassigned) [IVA-NHCH(SPh)CO--LEU--STA--MBA (Isomer A), IVA-NHCH(SPh)-CO-LEU-STA-MBA]: the IC50 is 140 nM. For `CC[C@H](C)CNC(=O)C[C@H](O)[C@H](CC(C)C)NC(=O)[C@H](CC(C)C)NC(=O)C(NC(=O)CC(C)C)Sc1ccccc1` (single isomer, unassigned) [IVA-NHCH(SPh)CO--LEU--STA--MBA (Mixture of diastereomers), IVA-NHCH(SPh)-CO-LEU-STA-MBA], the IC50 is 190 nM. On to `CC[C@H](C)CNC(=O)C[C@H](O)[C@H](CC(C)C)NC(=O)[C@H](CC(C)C)NC(=O)C(NC(=O)OC(C)(C)C)SC(C)C` (some centres unmarked) [BOC--NHCH(SCH(CH3)2)CO--LEU--STA--MBA, BOC-NHCH(SCH-(CH3)2)CO-LEU-STA-MBA], for which, under “at 10^-6 molar concentration of test compound, read-out: In Vitro Activity, percent inhibition at 10^-6”, the inhibition at 1 µM was found to be 23%.

With `CC(C)CC(=O)NC(C(=O)N[C@@H](Cc1c[nH]cn1)C(=O)N[C@@H](CC1CCCCC1)[C@@H](O)[C@@H](O)CC(C)C)S(=O)(=O)C(C)C` (some centres unmarked) [IVA-NHCH(SO2 CH(CH3)2)CO--HIS--CAD, IVA-NHCH(SO2 CH(CH3)2)CO-HIS-CAD], the inhibition at 0.01 µM is 8.2%. As for `CC(C)CC(=O)NC(Sc1ccccc1)C(=O)N[C@@H](Cc1c[nH]cn1)C(=O)N[C@@H](CC1CCCCC1)[C@@H](O)[C@@H](O)CC(C)C` (some centres unmarked) [IVA-NHCH(SPh)CO--HIS--CAD, IVA-NHCH(SPh)CO-HIS-CAD], the IC50 came out at 1.5 nM. Turning to “IVA-NHCH(N(CH3)Ph)CO-HIS-CAD [IVA-NHCH(N(CH3)Ph)CO--HIS--CAD]”, the IC50 was determined as 3.5 nM. On to “IVA-NHCH(NHPh)CO-HIS-CAD [IVA-NHCH(NHPh)CO--HIS--CAD]”, for which the IC50 was 13 nM.

Regarding “IVA-NHCH(NHPh)CO-LEU-STA-MBA [IVA-NHCH(NHPh)CO--LEU--STA--MBA]”, for the setting “at 10^-6 molar concentration of test compound”, the “In Vitro Activity, percent inhibition at 10^-6” value came out at 24%.

As for “IVA-NHCH-(OPh)CO-HIS-CAD [IVA-NHCH(OPh)CO--HIS--CAD]”, the IC50 was 3000 nM. Same read-out and setting: as for “IVA-NHCH-(SCH(CH3)2)CO-HIS-CAD (Isomer B) [IVA-NHCH(SCH(CH3)2)CO--HIS--CAD (Isomer B)]”, the figure is 5.7 nM.
